Where a name gives a salt, the structure may show the parent alone.
The molecules below were run against KRas G12D (Homo sapiens (Human), UniProt P01116, G12D) (assay: KRas G12D Binding Assay (TR-FRET displacement of Cy5 labelled tracer)). Settings: GDP-loaded KRAS G12D (amino acids 1:169), 60 minute incubation at 22° C.
Experimental: After a 60 minute incubation at 22° C., the reaction was measured using a PerkinElmer EnVision multimode plate reader via TR-FRET dual wavelength detection, and the percent of control (POC) calculated using a ratiometric emission factor. […] The POC values were fit to a 4-parameter logistic curve and the IC50 value was determined as the concentration where the curve crosses 50 POC.
ND stands for “not determined.”

KRas G12D, sequence (P01116 other isoform, or with tags, fused parts or gaps G12D): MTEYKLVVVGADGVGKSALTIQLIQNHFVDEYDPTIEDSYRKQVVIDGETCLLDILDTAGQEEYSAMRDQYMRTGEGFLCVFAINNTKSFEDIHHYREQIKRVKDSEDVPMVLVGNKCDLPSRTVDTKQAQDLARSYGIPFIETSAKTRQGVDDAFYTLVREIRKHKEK

**Q.** How did the IC50 turn out when Fc1c(-c2cccc3cccc(Cl)c23)ncc2c(N3CC4CCC(C3)N4)nc(OC[C@@]34CCCN3C[C@@H](C(F)(F)F)C4)nc12 (mixture of isomers) [Example 382] was run?
**A.** Its IC50 is 21.1 nM.

**Q.** Which IC50 does the source give for Oc1cc(-c2ncc3c(N4C[C@H]5CC[C@@H](C4)N5)nc(OCC45CCCN4C(CF)CC5)nc3c2F)c2ccccc2c1 (mixture of isomers) [Example 384, 4-(4-((1R,5S)-3,8-diazabicyclo[3.2.1]octan-3-yl)-8-fluoro-2-((3-(fluoromethyl)tetrahydro-1H-pyrrolizin-7a(5H)-yl)methoxy)pyrido[4,3-d]pyrimidin-7-yl)naphthalen-2-ol] here?
**A.** Its IC50 is 2.4 nM.

**Q.** Which IC50 does the source give for COC1CN2CCCC2(COc2nc(N3CC4CCC(C3)N4)c3cnc(-c4cc(O)cc5cccc(F)c45)c(F)c3n2)C1 (mixture of isomers) [Example 388, 4-(4-((1R,5S)-3,8-diazabicyclo[3.2.1]octan-3-yl)-8-fluoro-2-((2-methoxytetrahydro-1H-pyrrolizin-7a(5H)-yl)methoxy)pyrido[4,3-d]pyrimidin-7-yl)-5-fluoronaphthalen-2-ol] here?
**A.** Its IC50 is 0.6 nM.

**Q.** With CCc1cccc2cncc(-c3ncc4c(N5CC6CCC(C5)N6)nc(OCC56CCCN5C[C@H](F)C6)nc4c3F)c12 (mixture of isomers) [Example 324, 4-((1R,5S)-3,8-diazabicyclo[3.2.1]octan-3-yl)-7-(5-ethylisoquinolin-4-yl)-8-fluoro-2-((2-fluorotetrahydro-1H-pyrrolizin-7a(5H)-yl)methoxy)pyrido[4,3-d]pyrimidine (racemic, trans)] as the molecule, how does the IC50 read?
**A.** Its IC50 is 10.2 nM.

**Q.** For CC1(C)CN2C[C@H](F)CC2(COc2nc(N3CC4CCC(C3)N4)c3cnc(-c4cccc5cccc(Cl)c45)c(F)c3n2)C1 (mixture of isomers) [Example 325, 4-((1R,5S)-3,8-diazabicyclo[3.2.1]octan-3-yl)-7-(8-chloronaphthalen-1-yl)-8-fluoro-2-((6-fluoro-2,2-dimethyltetrahydro-1H-pyrrolizin-7a(5H)-yl)methoxy)pyrido[4,3-d]pyrimidine (racemic, trans)], which IC50 is on record?
**A.** Its IC50 is 141 nM.

**Q.** How did the IC50 turn out when Oc1cc(-c2ncc3c(N4CC5CCC(C4)N5)nc(OCC45CCCN4C[C@H](F)C5)nc3c2F)c2c(Cl)cccc2c1 (mixture of isomers) [Example 330, 4-(4-((1R,5S)-3,8-diazabicyclo[3.2.1]octan-3-yl)-8-fluoro-2-((2-fluorotetrahydro-1H-pyrrolizin-7a(5H)-yl)methoxy)pyrido[4,3-d]pyrimidin-7-yl)-5-chloronaphthalen-2-ol (racemic, trans)] was run?
**A.** Its IC50 is 2.5 nM.

**Q.** For Cc1ccc2[nH]ncc2c1-c1ncc2c(N3CC4CCC(C3)N4)nc(OCC34CCCN3C[C@H](F)C4)nc2c1F (mixture of isomers) [Example 331, 4-((1R,5S)-3,8-diazabicyclo[3.2.1]octan-3-yl)-8-fluoro-2-((2-fluorotetrahydro-1H-pyrrolizin-7a(5H)-yl)methoxy)-7-(5-methyl-1H-indazol-4-yl)pyrido[4,3-d]pyrimidine (racemic, trans)], which IC50 is on record?
**A.** Its IC50 is 114 nM.

**Q.** With Oc1cc(-c2ncc3c(N4CC5C[C@@H](n6cncn6)C(C4)N5)nc(OC[C@@]45CCCN4C[C@H](F)C5)nc3c2F)c2ccccc2c1 (mixture of isomers) [Example 333, 4-(4-((6R)-6-(1H-1,2,4-triazol-1-yl)-3,8-diazabicyclo[3.2.1]octan-3-yl)-8-fluoro-2-((2-fluorotetrahydro-1H-pyrrolizin-7a(5H)-yl)methoxy)pyrido[4,3-d]pyrimidin-7-yl)naphthalen-2-ol (racemic, trans)] as the molecule, how does the IC50 read?
**A.** The IC50 was 450 nM.

**Q.** For Fc1ccc2cccc(-c3ncc4c(N5CC6CCC(C5)N6)nc(OC[C@@]56CCCN5C[C@H](F)C6)nc4c3F)c2c1Cl (racemic) [Example 336, 4-((1R,5S)-3,8-diazabicyclo[3.2.1]octan-3-yl)-7-(8-chloro-7-fluoronaphthalen-1-yl)-8-fluoro-2-((2-fluorotetrahydro-1H-pyrrolizin-7a(5H)-yl)methoxy)pyrido[4,3-d]pyrimidine (racemic, trans)], which IC50 is on record?
**A.** Its IC50 is 3.1 nM.

**Q.** Oc1ccc(OC(F)(F)F)c(-c2ncc3c(N4CC5CCC(C4)N5)nc(OCC45CCCN4C[C@H](F)C5)nc3c2F)c1 (mixture of isomers) [Example 340, 3-(4-((1R,5S)-3,8-diazabicyclo[3.2.1]octan-3-yl)-8-fluoro-2-((2-fluorotetrahydro-1H-pyrrolizin-7a(5H)-yl)methoxy)pyrido[4,3-d]pyrimidin-7-yl)-4-(trifluoromethoxy)phenol (racemic, trans)] was tested. Which IC50 did it give?
**A.** The IC50 was 0.4 nM.

**Q.** How did the IC50 turn out when Fc1c(-c2cccc(Cl)c2C2CC2)ncc2c(N3CC4CCC(C3)N4)nc(OCC34CCCN3C[C@H](F)C4)nc12 (mixture of isomers) [Example 342, 4-((1R,5S)-3,8-diazabicyclo[3.2.1]octan-3-yl)-7-(3-chloro-2-cyclopropylphenyl)-8-fluoro-2-((2-fluorotetrahydro-1H-pyrrolizin-7a(5H)-yl)methoxy)pyrido[4,3-d]pyrimidine (racemic, trans)] was run?
**A.** Its IC50 is 3.4 nM.

**Q.** Which IC50 does the source give for Fc1c(-c2c(C(F)(F)F)ccc3[nH]ncc23)ncc2c(N3CC4CCC(C3)N4)nc(OCC34CCCN3C[C@H](F)C4)nc12 (mixture of isomers) [Example 343, 4-((1R,5S)-3,8-diazabicyclo[3.2.1]octan-3-yl)-8-fluoro-2-((2-fluorotetrahydro-1H-pyrrolizin-7a(5H)-yl)methoxy)-7-(5-(trifluoromethyl)-1H-indazol-4-yl)pyrido[4,3-d]pyrimidine (racemic, trans)] here?
**A.** The IC50 was 10.4 nM.

**Q.** Which IC50 does the source give for Cc1cccc(O)c1-c1ncc2c(N3CC4CCC(C3)N4)nc(OC[C@@]34CCCN3C[C@H](F)C4)nc2c1F (racemic) [Example 377, 2-(4-((1R,5S)-3,8-diazabicyclo[3.2.1]octan-3-yl)-8-fluoro-2-((2-fluorotetrahydro-1H-pyrrolizin-7a(5H)-yl)methoxy)pyrido[4,3-d]pyrimidin-7-yl)-3-methylphenol] here?
**A.** The IC50 was 417 nM.

**Q.** For Fc1c(-c2ccccc2[C@@H]2C[C@H]2F)ncc2c(N3C[C@H]4CC[C@@H](C3)N4)nc(OCC34CCCN3CCC4)nc12 (relative stereo) [Example 285, 4-((1R,5S)-3,8-diazabicyclo[3.2.1]octan-3-yl)-8-fluoro-7-(2-(trans-2-fluorocyclopropyl)phenyl)-2-((hexahydro-1H-pyrrolizin-7a-yl)methoxy)pyrido[4,3-d]pyrimidine], which IC50 is on record?
**A.** Its IC50 is 279 nM.

**Q.** With Cn1cc([C@H]2CN3CCC[C@]3(COc3nc(N4CC5CCC(C4)N5)c4cnc(-c5cccc6cccc(Cl)c56)c(F)c4n3)C2)cn1 (stereo in doubt) [Example 220, 4-((1R,5S)-3,8-diazabicyclo[3.2.1]octan-3-yl)-7-(8-chloronaphthalen-1-yl)-8-fluoro-2-((2-(1-methyl-1H-pyrazol-4-yl)tetrahydro-1H-pyrrolizin-7a(5H)-yl)methoxy)pyrido[4,3-d]pyrimidine tris-hydrochloride salt] as the molecule, how does the IC50 read?
**A.** Its IC50 is 8.7 nM.

**Q.** Fc1c(-c2cccc3cccc(Cl)c23)ncc2c(N3CC4CCC(C3)N4)nc(OC[C@]34CCCN3C[C@H](c3ccccc3)C4)nc12 (stereo in doubt) [Example 221, 4-((1R,5S)-3,8-diazabicyclo[3.2.1]octan-3-yl)-7-(8-chloronaphthalen-1-yl)-8-fluoro-2-((2-phenyltetrahydro-1H-pyrrolizin-7a(5H)-yl)methoxy)pyrido[4,3-d]pyrimidine bis-hydrochloride salt] was tested. Which IC50 did it give?
**A.** The IC50 was 15.7 nM.

**Q.** O[C@H]1CN2CCC[C@]2(COc2nc(N3CC4CCC(C3)N4)c3cnc(-c4cccc5cccc(Cl)c45)c(F)c3n2)C1 (stereo in doubt) [Example 224, 7a-(((4-((1R,5S)-3,8-diazabicyclo[3.2.1]octan-3-yl)-7-(8-chloronaphthalen-1-yl)-8-fluoropyrido[4,3-d]pyrimidin-2-yl)oxy)methyl)hexahydro-1H-pyrrolizin-2-ol bis-hydrochloride] was tested. Which IC50 did it give?
**A.** Its IC50 is 27 nM.

**Q.** For C[C@H]1CN2CCC[C@@]2(COc2nc(N3CC4CCC(C3)N4)c3cnc(-c4cccc5cccc(Cl)c45)c(F)c3n2)C1 (stereo in doubt) [Example 227, 4-((1R,5S)-3,8-diazabicyclo[3.2.1]octan-3-yl)-7-(8-chloronaphthalen-1-yl)-8-fluoro-2-((2-methyltetrahydro-1H-pyrrolizin-7a(5H)-yl)methoxy)pyrido[4,3-d]pyrimidine bis-hydrochloride], which IC50 is on record?
**A.** Its IC50 is 6.4 nM.

**Q.** With N#C[C@H]1CCN2CCC[C@@]12COc1nc(N2CC3CCC(C2)N3)c2cnc(-c3cccc4cccc(Cl)c34)c(F)c2n1 (stereo in doubt) [Example 379, 7a-(((4-((1R,5S)-3,8-diazabicyclo[3.2.1]octan-3-yl)-7-(8-chloronaphthalen-1-yl)-8-fluoropyrido[4,3-d]pyrimidin-2-yl)oxy)methyl)hexahydro-1H-pyrrolizine-1-carbonitrile] as the molecule, how does the IC50 read?
**A.** The IC50 was 249 nM.

**Q.** Which IC50 does the source give for CCc1c(F)ccc2cccc(-c3ncc4c(N5CC6CCC(C5)N6)nc(OC[C@@]56CCCN5C[C@H](F)C6)nc4c3F)c12 (stereo in doubt) [Example 381, 4-((1R,5S)-3,8-diazabicyclo[3.2.1]octan-3-yl)-7-(8-ethyl-7-fluoronaphthalen-1-yl)-8-fluoro-2-((2-fluorotetrahydro-1H-pyrrolizin-7a(5H)-yl)methoxy)pyrido[4,3-d]pyrimidine] here?
**A.** Its IC50 is 0.7 nM.

**Q.** Which IC50 does the source give for COC[C@H]1CC[C@@]2(COc3nc(N4CC5CCC(C4)N5)c4cnc(-c5cc(O)cc6ccccc56)c(F)c4n3)CCCN12 (stereo in doubt) [Example 389, 4-(4-((1R,5S)-3,8-diazabicyclo[3.2.1]octan-3-yl)-8-fluoro-2-((3-(methoxymethyl)tetrahydro-1H-pyrrolizin-7a(5H)-yl)methoxy)pyrido[4,3-d]pyrimidin-7-yl)naphthalen-2-ol] here?
**A.** The IC50 was 1.4 nM.

**Q.** How did the IC50 turn out when COC(c1ccc(O)cc1-c1ncc2c(N3CC4CCC(C3)N4)nc(OC[C@@]34CCCN3C[C@H](F)C4)nc2c1F)C(F)(F)F (stereo in doubt) [Example 390, 3-(4-((1R,5S)-3,8-diazabicyclo[3.2.1]octan-3-yl)-8-fluoro-2-((2-fluorotetrahydro-1H-pyrrolizin-7a(5H)-yl)methoxy)pyrido[4,3-d]pyrimidin-7-yl)-4-(2,2,2-trifluoro-1-methoxyethyl)phenol] was run?
**A.** The IC50 was 36.8 nM.
